Patent publication US6737383B1, “Herbicidal oxadiazolidines” (priority 1999, dated 2004)

Assays:
[1] = system: pigweed; test: Test B pre/postemergence pigweed; assay type: in vivo, Amaranthus retroflexus
Outline: (§1)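 Response is a visual 0-to-10 score relative to untreated plants, where 0 means no effect and 10 means complete control, taken twelve to sixteen days after application. Treatments went onto soil at planting and onto foliage of 1- to 4-leaf plants, using a surfactant-containing non-phytotoxic solvent.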

[2] = system: rape; test: Test B pre/postemergence rape; assay type: in vivo, Brassica napus
Outline: as §1

[3] = system: soybean; test: Test B pre/postemergence soybean; assay type: in vivo, Glycine max
Outline: as §1

[4] = system: sugar beet; test: Test B pre/postemergence sugar beet; assay type: in vivo, Beta vulgaris
Outline: as §1

[5] = system: velvetleaf; test: Test B pre/postemergence velvetleaf; assay type: in vivo, Abutilon theophrasti
Outline: as §1

[6] = system: wheat; test: Test B pre/postemergence wheat; assay type: in vivo, Triticum aestivum
Outline: as §1

[7] = system: wild oat; test: Test B pre/postemergence wild oat; assay type: in vivo, Avena fatua
Outline: as §1

[8] = system: purple nutsedge; test: Test B pre/postemergence purple nutsedge; assay type: in vivo, Cyperus rotundus
Outline: as §1

[9] = system: rice; test: Test B flood test rice; assay type: in vivo, Oryza sativa
Outline: (§2)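 Each value is a visual injury score relative to controls, with 10 meaning complete control and 0 no effect. Evaluation took place twelve to sixteen days after the 2-leaf-stage plants were treated and kept in the greenhouse.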

[10] = system: smallflower flatsedge; test: Test B flood test smallflower flatsedge; assay type: in vivo, Cyperus difformis
Outline: as §2

[11] = system: duck salad; test: Test B flood test duck salad; assay type: in vivo, Heteranthera limosa; conditions: for Plant response rating, Ducksalad: scale 0 to 10, 0 is no effect, 10 is complete control; for Ducksalad plant response rating: scale of 0 to 10 where 0 is no effect and 10 is complete control
Outline: as §2

[12] = system: bamyardgrass; test: Test B flood test barnyardgrass; assay type: in vivo, Echinochloa crus-galli; conditions: for Plant response rating, Barnyardgrass: scale 0 to 10, 0 is no effect, 10 is complete control; for Barnyardgrass plant response rating: scale of 0 to 10 where 0 is no effect and 10 is complete control
Outline: as §2

[13] = Postemergence, Rate 250 g/ha, scale 0 to 10, 0 is no effect, 10 is complete control
[14] = Postemergence, Rate 500 g/ha, scale of 0 to 10 where 0 is no effect and 10 is complete control
[15] = Preemergence, Rate 62 g/ha, scale 0 to 10 (0 no effect, 10 complete control)
[16] = Preemergence, Rate 125 g/ha, scale of 0 to 10 where 0 is no effect and 10 is complete control
[17] = Preemergence, Rate 250 g/ha, scale 0 to 10, 0 is no effect, 10 is complete control
[18] = Preemergence, Rate 500 g/ha, scale 0 to 10, 0 is no effect, 10 is complete control
[19] = Postemergence section (flood test species), Rate 500 g/ha, scale of 0 to 10 where 0 is no effect and 10 is complete control
[20] = flood test species, listed under Postemergence, Rate 250 g/ha, scale 0 to 10, 0 is no effect, 10 is complete control
[21] = Postemergence (flood test), Rate 125 g/ha
[22] = Postemergence section (flood test species), Rate 500 g/ha
[23] = Rate 62 g/ha, Postemergence (flood test species)
[24] = flood test species, listed under Postemergence, Rate 250 g/ha

CC(C)Cn1c(=O)on(C(=O)N(c2ccc(Cl)cc2)C(C)C)c1=O [Compound 417]
4: Redroot pigweed plant response rating [1, 17] | Plant response rating, Soybean [3, 13] | Wild oats plant response rating [7, 18]
5: Rape plant response rating [2, 17]
0: Plant response rating, Redroot pigweed [1, 13] | Plant response rating, Redroot pigweed [1, 15] | Plant response rating, Redroot pigweed [1, 16] | Plant response rating, Rape [2, 13] | Plant response rating, Rape [2, 15] | Plant response rating, Rape [2, 16] | Plant response rating, Soybean [3, 15] | Plant response rating, Soybean [3, 16] | Soybean plant response rating [3, 17] | Soybean plant response rating [3, 18] | Plant response rating, Sugarbeets [4, 13] | Plant response rating, Sugarbeets [4, 15] | Plant response rating, Sugarbeets [4, 16] | Plant response rating, Velvetleaf [5, 13] | Velvetleaf plant response rating [5, 14] | Plant response rating, Velvetleaf [5, 15] | Plant response rating, Velvetleaf [5, 16] | Wheat plant response rating [6, 14] | Plant response rating, Wheat [6, 15] | Plant response rating, Wheat [6, 16] | Wheat plant response rating [6, 17] | Wild oats plant response rating [7, 14] | Plant response rating, Wild oats [7, 15] | Plant response rating, Wild oats [7, 16] | Plant response rating, Nutsedge [8, 13] | Nutsedge plant response rating [8, 14] | Plant response rating, Nutsedge [8, 15] | Plant response rating, Nutsedge [8, 16] | Nutsedge plant response rating [8, 17] | Nutsedge plant response rating [8, 18] | Rice plant response rating [9, 19] | Plant response rating, Rice [9, 20] | Plant response rating, Ducksalad [11, 21] | Ducksalad plant response rating [11, 23] | Plant response rating, Barnyardgrass [12, 21] | Barnyardgrass plant response rating [12, 23] | Plant response rating, Barnyardgrass [12, 24]
2: Rape plant response rating [2, 14] | Sugarbeets plant response rating [4, 17] | Velvetleaf plant response rating [5, 17] | Wheat plant response rating [6, 18] | Wild oats plant response rating [7, 17] | Plant response rating, Ducksalad [11, 24]
10: Redroot pigweed plant response rating [1, 18]
8: Barnyardgrass plant response rating [12, 22]
3: Redroot pigweed plant response rating [1, 14] | Ducksalad plant response rating [11, 22]
6: Rape plant response rating [2, 18] | Soybean plant response rating [3, 14] | Sugarbeets plant response rating [4, 14] | Sugarbeets plant response rating [4, 18] | Velvetleaf plant response rating [5, 18]
9: S. Flatsedge plant response rating [10, 19] | Plant response rating, S. Flatsedge [10, 20]
